In US20120035187A1 (priority 2009, published 2012):

Assays:
PC12-HS cells [1] = experiment: Evaluation A: neurocyte (cell)-growth-promoting action, ALAMAR BLUE; type: cell-based, rat
Procedure: Then, the effects of test samples were judged as follows:
The relative value of 140 to 199: Equivalent effect to that of NK-4, symbol (∘); The relative value of 200 or higher: Stronger effect than that of NK-4, symbol ([…]). • The results are in Table 6.
The relative fluorescent intensity of each well was determined by using the fluorescent intensity of each well with cells, which had been cultured by admixing with D-MEM medium containing 10% by volume of FBS without any of the compounds, and the intensity of the resulting culture was regarded as 100%. The results are expressed as cell survival percentages (%) in Table 9. […]
The test was conducted twice for each test sample in a triplicate manner and the data were averaged.
Seven compounds as in Table 17, NK-234, NK-26, NK-9815, NK-9694, NK-28 and NK-147 as well as NK-4, were each dissolved in DMSO to give a concentration of 5 mg/ml. […] The test was conducted twice for each test sample in a triplicate manner and the data were averaged.

PC12-HS cells [2] = experiment: Evaluation B: neurite-outgrowth action in presence of NGF; type: cell-based, rat; settings: for Percentage (%) of cells with neurite outgrowth: 50 μl/well of 2 μg/ml test solution + NGF final 5 ng/ml; for Percentage (%) of cells with neurite outgrowth / Evaluation B: Neurite-outgrowth action: 3 days; for Evaluation B: Neurite-outgrowth action: 50 μl of 400 ng/ml test sample solution per well + NGF final 5 ng/ml
[3] = 100 μl/well of 100 ng/ml test solution, 3 days, control = 100
[4] = compound concentration 25 ng/ml
[5] = compound concentration 50 ng/ml
[6] = compound concentration 100 ng/ml
[7] = compound concentration 200 ng/ml
[8] = compound concentration 80 ng/ml
[9] = compound concentration 400 ng/ml
[10] = compound concentration 2000 ng/ml
[11] = compound concentration 10000 ng/ml

| SMILES | Action of enhancing cell growth (%) (PC12-HS cells [1]; [3]) | Percentage (%) of cells with neurite outgrowth (PC12-HS cells [2]) | Evaluation B: Neurite-outgrowth action (PC12-HS cells [2]) | other results |
| --- | --- | --- | --- | --- |
| CCCCCCCCCCCN1C(C)=CS\C1=C/C=C(/C=C/c1scc(C)[n+]1CCCCCCCCCCC)c1scc(C)[n+]1CCCCCCCCCCC.[I-].[I-] [NK-9640] | 191% | 13% | – | – |
| CCCCCCCCCCN1C(C)=CS\C1=C/C=C(\C=C\c1scc(C)[n+]1CCCCCCCCCC)c1scc(C)[n+]1CCCCCCCCCC.[I-].[I-] [NK-2844] | 399% | 54% | – | – |
| CC1=CS\C(=C/C=C(\C=C\c2scc(C)[n+]2C)c2scc(C)[n+]2C)N1C.[I-].[I-] [NK-2] | 126% | 4% | – | – |
| CCCCCN1C(C)=CS\C1=C/C=C(\C=C\c1scc(C)[n+]1CCCCC)c1scc(C)[n+]1CCCCC.[I-].[I-] [NK-2850] | 553% | 56% | – | – |
| CCN1C(C)=CS\C1=C/C=C(\C=C\c1scc(C)[n+]1CC)c1scc(C)[n+]1CC.[I-].[I-] [NK-13] | 125% | 5% | – | Action of enhancing cell growth (%) (PC12-HS cells [1]; [4]): 126 ± 12%; Action of enhancing cell growth (%) (PC12-HS cells [1]; [5]): 140 ± 7%; Action of enhancing cell growth (%) (PC12-HS cells [1]; [6]): 231 ± 84%; Action of enhancing cell growth (%) (PC12-HS cells [1]; [7]): 209 ± 24%; Action on neurite outgrowth (%) (PC12-HS cells [2]; [8]): 10< %; Action on neurite outgrowth (%) (PC12-HS cells [2]; [9]): 10< %; Action on neurite outgrowth (%) (PC12-HS cells [2]; [10]): 10< %; Action on neurite outgrowth (%) (PC12-HS cells [2]; [11]): 10< % |
| CCCCCCN1C(C)=CS\C1=C/C=C(\C=C\c1scc(C)[n+]1CCCCCC)c1scc(C)[n+]1CCCCCC.[I-].[I-] [NK-392] | 560% | 44% | – | Action of enhancing cell growth (%) (PC12-HS cells [1]; [4]): 349 ± 63%; Action of enhancing cell growth (%) (PC12-HS cells [1]; [5]): 601 ± 93%; Action of enhancing cell growth (%) (PC12-HS cells [1]; [6]): 607 ± 71%; Action of enhancing cell growth (%) (PC12-HS cells [1]; [7]): 460 ± 41%; Action on neurite outgrowth (%) (PC12-HS cells [2]; [8]): 44 ± 12%; Action on neurite outgrowth (%) (PC12-HS cells [2]; [9]): 48 ± 2%; Action on neurite outgrowth (%) (PC12-HS cells [2]; [10]): 76 ± 8%; Action on neurite outgrowth (%) (PC12-HS cells [2]; [11]): 81 ± 10% |
| CCCCN1C(C)=CS\C1=C/C=C(\C=C\c1scc(C)[n+]1CCCC)c1scc(C)[n+]1CCCC.[I-].[I-] [NK-24] | 581% | 33% | – | – |
| CCN1/C(=C/C2=CC(=C/C=C/C3=CC(=C/c4sc5ccccc5[n+]4CC)/CC(C)(C)C3)/CC(C)(C)C2)Sc2ccccc21.[O-][Cl+3]([O-])([O-])[O-] [NK-2545] | – | – | ∘ (The test sample with a neurite outgrowth rate of 30% or higher was judged to be equivalent or more (∘) compared with NK-4) | – |
| CN1/C(=C/C2=[N+](C)c3ccccc3C2(C)C)Oc2ccccc21.[I-] [NK-1684] | – | – | ∘ (The test sample with a neurite outgrowth rate of 30% or higher was judged to be equivalent or more (∘) compared with NK-4) | – |
| CN1/C(=C/C=C/C=C/C=C/C2=[N+](C)c3ccccc3C2(C)C)C(C)(C)c2ccccc21.[I-] [NK-125] | – | – | ∘ (The test sample with a neurite outgrowth rate of 30% or higher was judged to be equivalent or more (∘) compared with NK-4) | – |
| CCCCCCCN1C(C)=CS/C1=C\c1scc(C)[n+]1CCCCCCC.[I-] [NK-266] | – | – | ∘ (The test sample with a neurite outgrowth rate of 30% or higher was judged to be equivalent or more (∘) compared with NK-4) | – |
| CCN1/C(=C/c2oc3ccccc3[n+]2CC)Oc2ccccc21.[I-] [NK-863] | – | – | ∘ (The test sample with a neurite outgrowth rate of 30% or higher was judged to be equivalent or more (∘) compared with NK-4) | – |
| CCCCCCC[n+]1c(C)csc1/C=C/c1ccc(N(C)C)cc1.[Cl-] [NK-279] | – | – | ∘ (The test sample with a neurite outgrowth rate of 30% or higher was judged to be equivalent or more (∘) compared with NK-4) | – |
| Cc1ccc2c(c1)S/C(=C\c1sc3cc(C)ccc3[n+]1C)N2C.[I-] [NK-594] | – | – | ∘ (The test sample with a neurite outgrowth rate of 30% or higher was judged to be equivalent or more (∘) compared with NK-4) | – |
| CCN1/C(=C/C=C/C=C/c2sc3ccc4ccccc4c3[n+]2CC)Sc2ccc3ccccc3c21.[I-] [NK-2409] | – | – | ∘ (The test sample with a neurite outgrowth rate of 30% or higher was judged to be equivalent or more (∘) compared with NK-4) | – |
| CC[n+]1ccc(/C=C/C=C/c2ccc(N(C)C)cc2)c2ccccc21.[I-] [NK-526] | – | – | ∘ (The test sample with a neurite outgrowth rate of 30% or higher was judged to be equivalent or more (∘) compared with NK-4) | – |
| CCCCCCC[n+]1c(/C=C/c2ccc(N(C)C)cc2)ccc2ccccc21.[I-] [NK-231] | – | – | ∘ (The test sample with a neurite outgrowth rate of 30% or higher was judged to be equivalent or more (∘) compared with NK-4) | – |
| CCCCCCCCCCCCN1C(C)=CS\C1=C/C=C(/C=C/c1scc(C)[n+]1CCCCCCCCCCCC)c1scc(C)[n+]1CCCCCCCCCCCC.[I-].[I-] [NK-32] | 199% | 16% | – | – |
| CCN1/C(=C/C=C/c2cc[n+](CC)c3ccccc23)Oc2ccccc21.[I-] [NK-741] | – | – | ∘ (The test sample with a neurite outgrowth rate of 30% or higher was judged to be equivalent or more (∘) compared with NK-4) | – |
| CCN1/C(=C/C=C/C=C/c2sc3ccccc3[n+]2CC)Sc2ccccc21.[I-] [NK-136] | – | – | ∘ (The test sample with a neurite outgrowth rate of 30% or higher was judged to be equivalent or more (∘) compared with NK-4) | – |
| CCCN1C(C)=CS\C1=C/C=C(\C=C\c1scc(C)[n+]1CCC)c1scc(C)[n+]1CCC.[I-].[I-] [NK-237] | 212% | 16% | – | – |
| CN1/C(=C/C=C/c2oc3ccccc3[n+]2C)Oc2ccccc21.[I-] [NK-86] | – | – | ∘ (The test sample with a neurite outgrowth rate of 30% or higher was judged to be equivalent or more (∘) compared with NK-4) | – |
